{"source": "patent US8835375B2", "about": "(Applied Nanosystems B.V., priority 2006, dated 2014)", "key": {"[1]": {"conditions": "cited from earlier work"}, "[2]": {"test_system": "angiotensin-I converting enzyme (ACE)", "test": "angiotensin-I converting enzyme (ACE) of the vascular endothelium", "conditions": "cited from earlier work"}, "[3]": {"test_system": "Angiotensin Converting Enzyme (ACE)", "test": "Angiotensin Converting Enzyme (ACE) from Porcine kidney, SIGMA, 8 nM in 100 mM Tris-HCl, 300 mm NaCl, 10 μM Zn, pH 8.3", "conditions": "37° C."}, "[4]": {"test_system": "Angiotensin Converting Enzyme (ACE)", "test": "Angiotensin Converting Enzyme (ACE) from Porcine kidney, SIGMA, 4 nM in 100 mM Tris-HCl, 300 mm NaCl, 10 μM Zn, pH 8.3", "conditions": "37° C., up to 26 hour"}, "[5]": {"test": "plasma from rat under continuous intravenous infusion (1 mL/hour)", "conditions": "Sprague Dawley rat, up to 120 min"}, "angiotensinases": {"test_system": "angiotensinases", "test": "in the body; angiotensinases located in red blood cells and the vascular beds of most tissues", "conditions": "cited from earlier work"}}, "note": "Entries after “also recorded” stand apart in the source; their conditions may differ. Non-standard residues stand in square brackets, D forms with d. No end group written: not given here. Abu = CC[C@H](N)C(=O)O"}
{"substance": "DRVYIHPFHL", "values": [{"measurement": "fragment found", "setting": "[1]", "result": "Ang(1-9); also recorded: Ang(1-7); also recorded: Ang III (Ang(2-8)); also recorded: Ang IV (Ang(3-8))"}, {"measurement": "cleaved bond", "setting": "[2]", "result": "Phe8-His9"}]}
{"substance": "DRV[Abu]IHA", "values": [{"measurement": "not cleaved", "setting": "[3]", "result": "no breakdown observed"}, {"measurement": "not cleaved", "setting": "[4]", "result": "no degradation after 26 hour"}, {"measurement": "not cleaved", "setting": "[5]", "result": "intact peptide detected in the sample taken at 120 min; very stable"}]}
{"substance": "Asp-Arg-Val-Tyr-Ile-His-Pro-Phe", "values": [{"measurement": "fragment found", "setting": "angiotensinases", "result": "angiotensin III (Arg-Val-Tyr-Ile-His-Pro-Phe; or Ang(2-8)"}]}
